According to patent publication US5578622A, “Isothiazole derivatives and their uses” (Asamura Patent Office, priority 1994, dated 1996):

Tests used:
Tyromyces palustris = assay: Test for wood rotting-preventing effect (mycelium growth inhibition on malt extract agar); type: cell-based; conditions: 28° C.±2° C., 2 to 10 days, read-out: Rotting preventing effect (mycelium growth-inhibitory rate), TYP
Protocol: (§1) The following fungi were cultured in agar media, respectively, and mycelial disks on the media were stamped out together with the agar using a cork borer of 4 mm in diameter. The resulting mycelial disks on agar were used as an inoculum. Each test compound of 50 ppm was added to a malt extract agar medium and added in parts to Petri dishes. The above prepared inoculum was put on the Petri dishes and cultured at 28° C.±2° C. Two to ten days after inoculation, the diameter of the mycelial disk of each fungus was measured, and the mycelium growth-inhibitory rate was obtained according to the following equation. [formula] The mycelium growth-inhibitory rate (%) is indicated by the following symbols as a fungicidal effect on each fungus, and the results are shown in Table 2. | TYP: Tyromyces palustris

Trichoderma viride = assay: as above; type: cell-based; conditions: 28° C.±2° C., 2 to 10 days, read-out: Rotting preventing effect (mycelium growth-inhibitory rate), TRV
Protocol: as §1, with “TRV: Trichoderma viride” for “TYP: Tyromyces palustris”

Aspergillus niger = assay: as above; type: cell-based; conditions: 28° C.±2° C., 2 to 10 days, read-out: Rotting preventing effect (mycelium growth-inhibitory rate), ASN
Protocol: as §1, with “ASN: Aspergillus niger” for “TYP: Tyromyces palustris”

Rhizopus nigricans = assay: as above; type: cell-based; conditions: Rhizopus stolonifer, 28° C.±2° C., 2 to 10 days, read-out: Rotting preventing effect (mycelium growth-inhibitory rate), RHN
Protocol: as §1, with “RHN: Rhizopus nigricans” for “TYP: Tyromyces palustris”

[1] = system: Gibberella fujikuroi ("Bakanae" disease of rice); assay: Test for rice seed-disinfecting effect; type: in vivo; conditions: Fusarium fujikuroi, 504 h, seed immersion 25° C. 24 hours, three weeks after treatment, read-out: Controlling effect (control of disease), "Bakanae" disease of rice
Protocol: 2-1 Test for rice seed-disinfecting effect
Unhulled rice infected with Gibberella fujikuroi ("Bakanae" disease of rice) was immersed in a test compound adjusted to 1000 ppm at 25° C. for 24 hours. Water was lightly swished off the seed, which was then sowed and germinated for two days. Three weeks after treatment with the solution containing the compound, the rate of the infected seedlings was examined, and the control of disease was calculated by comparison with that of the untreated plot. The control of disease was shown as a controlling effect on the basis of the following standard.

[2] = system: Pseudoperonospora cubensis; assay: Test for controlling effect on downy mildew of cucumber; type: in vivo; conditions: 168 h, 200 ppm spray, one day before inoculation, cucumber 2-leaf stage, read-out: Controlling effect (control of disease), Downy mildew of cucumber
Protocol: 2-2 Test for controlling effect on downy mildew of cucumber (Pseudoperonospora cubensis) A test compound adjusted to 200 ppm was sprayed onto cucumber at the 2-leaf stage cultivated in pots. After one day, the cucumber was inoculated by spraying the zoospore suspension of Pseudoperonospora cubensis. After inoculation, the cucumber was placed in a 25° C.-humid room for 1 day and then in a greenhouse for 6 days. Thus, the cucumber was made to be infected with downy mildew. The control of disease of the test compound is calculated by comparing the degree of infection of each leaf with that in the untreated plot. The control of disease is shown as a controlling effect in the same manner as in Test Example 2-1.

Rhizoctonia solani = assay: Test for controlling effect on sheath blight of rice; type: in vivo; conditions: 120 h, 200 ppm spray, 24 hours after inoculation, rice 4-leaf stage, five days after inoculation, read-out: Controlling effect (control of disease), Sheath blight of rice
Protocol: 2-3 Test for controlling effect on sheath blight of rice (Rhizoctonia solani) Rice seedlings at the 4-leaf stage were inoculated with the mycelium of sheath blight of rice (Rhizoctonia solani). After 24 hours, a test medicine solution adjusted to 200 ppm was sprayed onto the seedlings. After air-drying, the seedlings were placed in a humid room for 24 hours where the temperature was kept at 28° C. and humidity was kept at 98%. Thereafter, the seedlings were transferred to a greenhouse, and five days after inoculation, the degree of infected area was examined. The control of disease was calculated by comparison with that in the untreated plot. The control of disease is shown as a controlling effect in the same manner as in Test Example 2-1.

Row | Compound | inhibition at 50 ppm (Tyromyces palustris) | inhibition at 50 ppm (Trichoderma viride) | inhibition at 50 ppm (Aspergillus niger) | inhibition at 50 ppm (Rhizopus nigricans) | pest or weed control at 1000 ppm [1] | pest or weed control at 200 ppm [2] | pest or weed control at 200 ppm (Rhizoctonia solani)
1 | CCSc1snc(SCOCC#CI)c1C#N [Compound 129] | 95 to 100% | 95 to 100% | 80 to 94% | 80 to 94% | – | – | –
2 | CC(C)Oc1nsc(OCC#CI)c1C#N [Compound 51] | 95 to 100% | 95 to 100% | 95 to 100% | 95 to 100% | – | – | –
3 | CC(=O)Oc1nsc(SCOCC#CI)c1C#N [Compound 67] | 95 to 100% | 80 to 94% | 80 to 94% | 95 to 100% | 80 to 94% | 80 to 94% | 95 to 100%
4 | CC(OCC#CI)Oc1nsc(SC(F)F)c1C#N (stereo not shown) [Compound 122] | 95 to 100% | 95 to 100% | 95 to 100% | 95 to 100% | 95 to 100% | 95 to 100% | 95 to 100%
5 | CCS(=O)(=O)c1snc(OCOCC#CI)c1C#N [Compound 94] | 95 to 100% | 95 to 100% | 95 to 100% | 95 to 100% | 95 to 100% | 95 to 100% | 95 to 100%
6 | CCSc1snc(OCOCC#CI)c1C#N [Compound 86, 3-(3-iodo-2-propynyloxymethyloxy)-4-cyano-5-ethylthioisothiazole] | 95 to 100% | 95 to 100% | 95 to 100% | 95 to 100% | 95 to 100% | 95 to 100% | 80 to 94%
7 | COc1nsc(SCOCC#CI)c1C#N [Compound 53, 3-methoxy-4-cyano-5-(3-iodo-2-propynyloxymethylthio)isothiazole] | 95 to 100% | 95 to 100% | 95 to 100% | 80 to 94% | 95 to 100% | 95 to 100% | 95 to 100%
8 | CC(C#CI)OCOc1nsc(N(C)C)c1C#N (stereo not shown) [Compound 115] | 95 to 100% | 95 to 100% | 95 to 100% | 95 to 100% | 95 to 100% | 80 to 94% | 95 to 100%
9 | C#CCSc1snc(OCC#CI)c1C#N [Compound 10] | 95 to 100% | 80 to 94% | 95 to 100% | 80 to 94% | – | – | –
10 | COc1snc(OCOCC#CI)c1C#N [Compound 95] | 95 to 100% | 95 to 100% | 95 to 100% | 95 to 100% | – | – | –
11 | CCSc1snc(OCC#CI)c1C#N [Compound 2] | 95 to 100% | 80 to 94% | 60 to 79% | 80 to 94% | – | – | –
12 | CC(C)Sc1snc(OCCC#CI)c1C#N [Compound 72] | 95 to 100% | 95 to 100% | 95 to 100% | 95 to 100% | – | – | –
13 | CSc1snc(OCOC(C)(C)C#CI)c1C#N [Compound 100, 3-(3-iodo-l,l-dimethyl-2-propynyloxymethyloxy)-4-cyano-5-methylthioisothiazole] | 95 to 100% | 95 to 100% | 80 to 94% | 80 to 94% | 95 to 100% | 95 to 100% | 95 to 100%
14 | CCCCN(C)c1snc(OCC#CI)c1C#N [Compound 32] | – | – | – | – | 80 to 94% | 95 to 100% | 60 to 79%
15 | N#Cc1c(OCC#CI)nsc1SCOCC#CI [Compound 142] | 95 to 100% | 95 to 100% | 95 to 100% | 95 to 100% | – | – | –
16 | CCOc1snc(OCOC(C)C#CI)c1C#N (stereo not shown) [Compound 114] | – | – | – | – | 95 to 100% | 95 to 100% | 80 to 94%
17 | COCCOc1nsc(OCCC#CI)c1C#N [Compound 84] | 95 to 100% | 95 to 100% | 95 to 100% | 95 to 100% | – | – | –
18 | COCCSc1snc(OCC#CI)c1C#N [Compound 15] | – | – | – | – | 95 to 100% | 80 to 94% | 80 to 94%
19 | N#CCSc1snc(OCC#CI)c1C#N [Compound 17] | – | – | – | – | 95 to 100% | 95 to 100% | 95 to 100%
20 | CC(C)Oc1snc(OCOCC#CI)c1C#N [Compound 98] | 95 to 100% | 95 to 100% | 95 to 100% | 95 to 100% | – | – | –
21 | N#Cc1c(OCC#CI)nsc1S(=O)(=O)C1CCCC1 [Compound 46] | 95 to 100% | 60 to 79% | 80 to 94% | 60 to 79% | – | – | –
22 | C=CCSc1snc(SCOCC#CI)c1C#N [Compound 132] | 95 to 100% | 95 to 100% | 95 to 100% | 95 to 100% | – | – | –
23 | CCCSc1snc(OCOCC#CI)c1C#N [Compound 87] | 95 to 100% | 95 to 100% | 95 to 100% | 95 to 100% | – | – | –
24 | C=CC[S+]([O-])c1snc(OCC#CI)c1C#N (stereo not shown) [Compound 47] | – | – | – | – | 95 to 100% | 80 to 94% | 95 to 100%
25 | N#Cc1c(SCOCC#CI)nsc1SCOCC#CI [Compound 140] | – | – | – | – | 80 to 94% | 95 to 100% | 80 to 94%
26 | CSc1snc(OCOCC#CI)c1C#N [Compound 85] | 95 to 100% | 95 to 100% | 95 to 100% | 95 to 100% | – | – | –
27 | CCOc1nsc(SC(C)OCC#CI)c1C#N (stereo not shown) [Compound 126] | 95 to 100% | 95 to 100% | 95 to 100% | 95 to 100% | – | – | –
28 | C=CCSc1snc(OCC#CI)c1C#N [Compound 8] | – | – | – | – | 95 to 100% | 95 to 100% | 60 to 79%
29 | N#Cc1c(OCC#CI)nsc1SC1CCCC1 [Compound 7] | 95 to 100% | 60 to 79% | 60 to 79% | 60 to 79% | – | – | –
